# Measurements reported in patent publication US20210355107A1, “MULTI-SUBSTITUTED PYRIDONE DERIVATIVES AND MEDICAL USE THEREOF” (Beijing Yuezhikangtai Biomedicines Co., Ltd., priority 2018, published 2021).
# Experiments:
# EBC-1 cells = assay: EBC-1 cell proliferation, CellTiter-Glo Luminescent Cell Viability Assay; assay type: cell-based; settings: Homo sapiens, 72 h incubation, read-out: IC50 (nM) against EBC-1 cells
# Procedure: Test Example 3: Inhibitory Activity of Compounds disclosed herein against EBC-1 Cells
# Test method: the inhibitory activity of the compounds against EBC-1 cell proliferation was evaluated using CellTiter-Glo® Luminescent Cell Viability Assay Kit (Promega).
# Test procedures: when thawing EBC-1 cells, the cell cryopreservation tube was shaken rapidly in a water bath at 37° C. to thaw the cells in 1 min. The cell suspension after thawing was mixed with RPMI1640 culture medium containing 10% FBS and centrifuged for 5 min at 1000 rpm, and the supernatant was discarded. The cell pellet was suspended in 5 mL of complete culture medium. The suspension was placed in a cell culture flask with a bottom area of 25 cm^2, and cultured in a cell incubator at 37° C./95% humidity/5% CO2. Cell passage was performed when cell confluence reached about 80%. When the cells were passaged, the original cell suspension was directly made uniform by pipetting. 1/6 of the cell suspension was kept, added with 5 mL of new complete culture medium and then made uniform by pipetting. The cell culture flask was then placed in a cell incubator for further culturing. Cell plating was performed when the cell confluence reached about 80% again. With reference to the method for cell passage, 1/6 cell suspension was kept for further culturing when the cells were plated, and the remaining 5/6 of cell suspension was placed in a 15 mL centrifuge tube. Cell viability was detected by trypan blue exclusion using an IC1000 cell counter (Countstar) to ensure that cell viability was above 90%. Cell suspension at a density of 3.33×10^4 viable cells/mL was prepared using complete culture medium, and 90 μL of the cell suspension was added into 96-well cell culture plates, so that the cell density in the cell culture plates (day 0 plate and test compound plate) was 3000 viable cells/well. A control group that contains no cell or compound but only complete culture medium and a control group that contains no compound but cells were set. The cell plates were incubated overnight in a cell incubator. […] 10 μL of the above solution was added into a corresponding cell culture plate to ensure that the initial concentration of the compound was 10 μM, the dilution factor of adjacent concentration was 3.16, and the DMSO content in the cell culture plate was 0.1%. The cell plates were then incubated in the cell incubator for 72 h. During detection, CellTiter-Glo reagent (namely CellTiter-Glo® […] cell viability test reagent, Promega, Cat. No. G7572, Lot. No. 0000310975) was melted, and the cell plate was equilibrated at room temperature for 30 min. The cell plate was added with the CellTiter-Glo reagent at 100 μL per well, and then shaken on a QB-9001 microporous quick shaker (Kylin-Bell) for 5 min to fully lyse the cells. The cell plate was left to stand at room temperature for 20 min to stabilize luminescence signals, and the luminescence value of each well was scanned by a Spectramax M3 multi-functional microplate reader (Molecular Devices) at full wavelength.
# Test samples: example compounds of the present invention and cabozantinib (positive control compound).
# Data analysis: cell viability was calculated for compounds at various concentrations using the following formula:
# Cell viability(%)=(Lumtest compound−Lumculture solution control)/(Lumcell control−Lumculture solution control)×100%,
# where Lum refers to the luminescence value of each well of the test compound plate read by the multi-functional microplate reader.
# The data were analyzed using GraphPad Prism 7.0 software, fitted with nonlinear S-curve regression to give dose-response curves, and IC50 values were calculated therefrom.
# kinase c-MET = target: T1, kinase c-MET (Homo sapiens, UniProt P08581); assay: Mobility shift assay, inhibitory activity against kinase c-MET; assay type: biochemical; settings: ATP at Km (35 μM), average of two independent experiments
# T1 construct: purchased Carna 08-151
# T1 sequence (P08581 956-1390 limits assumed): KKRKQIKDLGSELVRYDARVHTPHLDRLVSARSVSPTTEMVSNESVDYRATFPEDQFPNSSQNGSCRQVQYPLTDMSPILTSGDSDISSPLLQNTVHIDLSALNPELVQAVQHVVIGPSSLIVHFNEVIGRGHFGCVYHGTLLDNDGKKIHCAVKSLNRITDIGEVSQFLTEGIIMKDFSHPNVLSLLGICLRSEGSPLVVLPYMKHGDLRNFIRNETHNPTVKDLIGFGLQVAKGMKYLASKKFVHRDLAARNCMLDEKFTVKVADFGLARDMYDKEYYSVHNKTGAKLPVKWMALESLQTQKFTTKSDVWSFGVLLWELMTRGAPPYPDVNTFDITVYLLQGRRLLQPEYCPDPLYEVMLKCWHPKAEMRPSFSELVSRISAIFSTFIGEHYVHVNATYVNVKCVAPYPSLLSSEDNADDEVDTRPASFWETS
# Procedure: (§1) In this test, mobility shift assay was used to test the inhibitory activity of compounds when ATP concentrations correspond to the Km of the kinases.
# (§2) The concentration of test compound was 10-fold diluted from an initial concentration of 10 μM. The test result (IC50) was the average of two independent experiments.
# (§3) For example, a compound at an initial concentration of 10 μM was adjusted to 500 μM with 100% DMSO, then serially diluted for 10 concentrations, and then subjected to 10-fold dilution with the buffer to prepare a diluted compound intermediate containing 10% DMSO, 5 μL of which was transferred to the 384-well plate.
# (§4) 10 μL of the two enzyme solutions each was added to the 384-well plate and co-incubated with the compound for 10-15 min at room temperature.
# (§5) 10 μL of the diluted substrate was added to the 384-well plate to initiate the reaction, which lasts for 1 h at 28° C.
# (§6) 5) The conversion rate was read by Caliper Reader (Perkin Elmer) and the inhibition rate was calculated as the average of two tests.
# (§7) 6) IC50 values were fitted with XL-fit software.
# kinase Axl = target: T2, kinase Axl (Homo sapiens, UniProt P30530); assay: Mobility shift assay, inhibitory activity against kinase Axl; assay type: biochemical; settings: ATP at Km (81 μM), average of two independent experiments
# T2 construct: purchased Carna 08-107
# T2 sequence (P30530 473-894 limits assumed): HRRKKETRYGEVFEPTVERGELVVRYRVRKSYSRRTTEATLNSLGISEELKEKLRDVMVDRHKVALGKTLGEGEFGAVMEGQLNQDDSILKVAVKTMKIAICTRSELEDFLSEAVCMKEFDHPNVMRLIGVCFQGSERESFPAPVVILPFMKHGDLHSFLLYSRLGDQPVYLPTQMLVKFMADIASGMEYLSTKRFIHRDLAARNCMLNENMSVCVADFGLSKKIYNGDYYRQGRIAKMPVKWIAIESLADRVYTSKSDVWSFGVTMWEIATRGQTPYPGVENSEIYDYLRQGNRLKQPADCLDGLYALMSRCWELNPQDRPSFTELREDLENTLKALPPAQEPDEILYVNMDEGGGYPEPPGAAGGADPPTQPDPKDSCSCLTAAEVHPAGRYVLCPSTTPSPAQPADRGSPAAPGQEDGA
# Procedure: as §1, §2, §3, §4, §5, §6, §7
Structure (SMILES),IC50 (kinase c-MET) [nM],IC50 (kinase Axl) [nM],IC50 (EBC-1 cells) [nM]
"COc1cc2nccc(Oc3ccc(NC(=O)C4(C(=O)Nc5ccc(F)cc5)CC4)cc3)c2cc1OC [Cabozantinib, cabozantinib, reference compound]",–,–,37
"CC(C)n1cc(C(=O)Nc2ccc(-c3cc(-c4cnn(C5CCOCC5)c4)cnc3N)c(F)c2)c(=O)c(-c2ccc(F)cc2)c1C#N [Example 5, N-(4-(2-amino-5-(1-(tetrahydro-2H-pyran-4-yl)-1H-pyrazol-4-yl)-pyridin-3-yl)-3-fluorophenyl)-6-cyano-5-(4-fluorophenyl)-1-isopropyl-4-oxo-1,4-dihydro-pyridine-3-carboxamide]",38,2.6,–
"N#Cc1c(-c2ccc(F)cc2)c(=O)c(C(=O)Nc2ccc(-c3cc(-c4cnn(C5CCNCC5)c4)cnc3N)c(F)c2)cn1C1CCC1 [Example 8, N-(4-(2-amino-5-(1-(piperidin-4-yl)-1H-pyrazol-4-yl)pyridin-3-yl)-3-fluorophenyl)-6-cyano-5-(4-fluorophenyl)-1-cyclobutyl-4-oxo-1,4-dihydropyridine-3-carboxamide]",17,1.1,–
"N#Cc1c(-c2ccc(F)cc2)c(=O)c(C(=O)Nc2ccc(-c3cc(-c4cnn(C5CCNCC5)c4)cnc3N)c(F)c2)cn1C1CC1 [Example 11, N-(4-(2-amino-5-(1-(piperidin-4-yl)-1H-pyrazol-4-yl)pyridin-3-yl)-3-fluorophenyl)-6-cyano-5-(4-fluorophenyl)-1-cyclopropyl-4-oxo-1,4-dihydropyridine-3-carboxamide]",10,0.95,91
"N#Cc1c(C2CC2)cc(C(=O)Nc2ccc(-c3cc(-c4cnn(C5CCNCC5)c4)cnc3N)c(F)c2)c(=O)n1-c1ccc(F)cc1 [Example 12, N-(4-(2-amino-5-(1-(piperidin-4-yl)-1H-pyrazol-4-yl)pyridin-3-yl)-3-fluorophenyl)-6-cyano-5-cyclopropyl-1-(4-fluorophenyl)-2-oxo-1,2-dihydropyridine-3-carboxamide]",23,2.1,98
"CCn1cc(-c2cnc(N)c(-c3ccc(NC(=O)c4cc(C5CC5)c(C#N)n(-c5ccc(F)cc5)c4=O)cc3F)c2)cn1 [Example 14, N-(4-(2-amino-5-(1-ethyl-1H-pyrazol-4-yl)pyridin-3-yl)-3-fluorophenyl)-6-cyano-5-cyclopropyl-1-(4-fluorophenyl)-2-oxo-1,2-dihydropyridine-3-carboxamide]",82,12,–
"Cn1cc(-c2cnc(N)c(-c3ccc(NC(=O)c4cc(C5CC5)c(C#N)n(-c5ccc(F)cc5)c4=O)cc3F)c2)cn1 [Example 15, N-(4-(2-amino-5-(1-methyl-1H-pyrazol-4-yl)pyridin-3-yl)-3-fluorophenyl)-6-cyano-5-cyclopropyl-1-(4-fluorophenyl)-2-oxo-1,2-dihydropyridine-3-carboxamide]",20,6.6,190
"N#Cc1c(C2CC2)cc(C(=O)Nc2ccc(-c3cc(-c4cnn(C5CCOCC5)c4)cnc3N)c(F)c2)c(=O)n1-c1ccc(F)cc1 [Example 16, N-(4-(2-amino-5-(1-(tetrahydro-2H-pyran-4-yl)-1H-pyrazol-4-yl)pyridin-3-yl)-3-fluorophenyl)-6-cyano-5-cyclopropyl-1-(4-fluorophenyl)-2-oxo-1,2-dihydro-pyridine-3-carboxamide]",143,9.8,–
"COc1cc2nccc(Oc3ccc(NC(=O)c4cn(C5CCC5)c(C#N)c(-c5ccc(F)cc5)c4=O)cc3F)c2cc1OC [Example 23, 6-cyano-N-(4-((6,7-dimethoxyquinolin-4-yl)oxy)-3-fluoro-phenyl)-5-(4-fluorophenyl)-1-cyclobutyl-4-oxo-1,4-dihydropyridine-3-carboxamide]",–,–,74
"COc1cc2nccc(Oc3ccc(NC(=O)c4cn(C(C)C)c(C#N)c(-c5ccc(F)cc5)c4=O)cc3F)c2cc1C#N [Example 25, 6-cyano-N-(4-((6-cyano-7-methoxyquinolin-4-yl)oxy)-3-fluoro-phenyl)-5-(4-fluorophenyl)-1-isopropyl-4-oxo-1,4-dihydropyridine-3-carboxamide]",–,–,115

# More lines, main results first:
IC50 (kinase c-MET) [nM],IC50 (kinase Axl) [nM],Structure (SMILES),IC50 (EBC-1 cells) [nM]
23,1.8,"C=C(C)c1cc(C(=O)Nc2ccc(-c3cc(-c4cnn(C5CCNCC5)c4)cnc3N)c(F)c2)c(=O)n(-c2ccc(F)cc2)c1C#N [Example 17, N-(4-(2-amino-5-(1-(piperidin-4-yl)-1H-pyrazol-4-yl)pyridin-3-yl)-3-fluorophenyl)-6-cyano-1-(4-fluorophenyl)-2-oxo-5-(prop-1-en-2-yl)-1,2-dihydropyridine-3-carboxamide]",–
12,12,"CCn1cc(-c2cnc(N)c(-c3ccc(NC(=O)c4cc(C)c(C#N)n(-c5ccc(F)cc5)c4=O)cc3F)c2)cn1 [Example 18, N-(4-(2-amino-5-(1-ethyl-1H-pyrazol-4-yl)pyridin-3-yl)-3-fluorophenyl)-6-cyano-1-(4-fluorophenyl)-5-methyl-2-oxo-1,2-dihydropyridine-3-carboxamide]",298
–,5.9,"COc1cc2nccc(Oc3ccc(NC(=O)c4cn(C5CC5)c(C#N)c(-c5ccc(F)cc5)c4=O)cc3F)c2cc1OC [Example 22, 6-cyano-N-(4-((6,7-dimethoxyquinolin-4-yl)oxy)-3-fluoro-phenyl)-5-(4-fluorophenyl)-1-cyclopropyl-4-oxo-1,4-dihydropyridine-3-carboxamide]",84
21,1,"COCc1c(C)cc(C(=O)Nc2ccc(Oc3ccnc4cc(OC)c(OC)cc34)c(F)c2)c(=O)n1-c1ccc(F)cc1 [Example 28, 5-methyl-N-(4-((6,7-dimethoxyquinolin-4-yl)oxy)-3-fluoro-phenyl)-1-(4-fluorophenyl)-6-(methoxymethyl)-2-oxo-1,2-dihydropyridine-3-carboxamide]",–
–,3.1,"COc1cc2nccc(Oc3ccc(NC(=O)c4cc(C)c(C#N)n(-c5ccc(F)cc5)c4=O)cc3F)c2cc1OC [Example 29A, 6-cyano-N-(4-((6,7-dimethoxyquinolin-4-yl)oxy)-3-fluoro-phenyl)-1-(4-fluorophenyl)-5-methyl-2-oxo-1,2-dihydropyridine-3-carboxamide]",82.7
30,3.9,"COc1cc2nccc(Oc3ccc(NC(=O)c4cc(Br)c(O)n(-c5ccc(F)cc5)c4=O)cc3F)c2cc1OC [Example 29B, 5-bromo-N-(4-((6,7-dimethoxyquinolin-4-yl)oxy)-3-fluorophenyl)-1-(4-fluorophenyl)-6-hydroxy-2-oxo-1,2-dihydropyridine-3-carboxamide]",–
